Non-standard residues stand in square brackets, D forms with d. No end group written: not given here. Ahx = NCCCCCC(=O)O; βAla = NCCC(=O)O
Assays:
C2C12 cells = assay: STS-induced DNA fragmentation (Cell Death detection ELISA PLUS) in C2C12 cells; format: cell-based, mouse; settings: C2C12; against STS
Method: FIG. 5: In vitro evaluation of the anti-apoptotic activity of CPPs and CPP-conjugates. Workflow and quantitation of DNA fragmentation in (A) C2C12 cells, (B) primary cardiomyocytes, (C) H9c2 cells and (D) NG108-15 cells. Data were normalized to 100% STS. Data shown are the means±SEM, with n≧5. Cells were seeded in 24-well plates and grown overnight. The next day, the cells were incubated with STS alone or with STS+1 μM peptide (in OPTI-MEM) (OPTI-MEM® is a modification of Eagle's Minimum Essential Media, buffered with HEPES and sodium bicarbonate, and supplemented with hypoxanthine, thymidine, sodium pyruvate, L-glutamine, trace elements, and growth factors) (STS concentration and incubation time for each cells are given in the figure). […] Following the regeneration phase, the cells were lyzed and DNA fragmentation was detected according to manufacturer's instructions (Cell Death detection ELISA^PLUS kit—Roche Diagnostics). […]
(§1) Thereafter, the capacity of these peptides to inhibit apoptosis induced by staurosporine was evaluated. Apoptosis was determined using the Cell Death detection ELISA^PLUS kit (Roche) measuring the DNA fragmentation.
(§2) The anti-apoptotic effects of the peptides were also analyzed in murine NG118-15 (model for neuronal cells) (FIG. 5D), in murine C2C12 (model for muscle cells) (FIG. 5A) and in rat H9c2 (model for cardiac cells) (FIG. 5C). […]

H9c2 cells = assay: STS-induced DNA fragmentation (Cell Death detection ELISA PLUS) in H9c2 cells; format: cell-based, rat; settings: H9c2; against STS
Method: FIG. 5: In vitro evaluation of the anti-apoptotic activity of CPPs and CPP-conjugates. Workflow and quantitation of DNA fragmentation in (A) C2C12 cells, (B) primary cardiomyocytes, (C) H9c2 cells and (D) NG108-15 cells. Data were normalized to 100% STS. Data shown are the means±SEM, with n≧5. Cells were seeded in 24-well plates and grown overnight. The next day, the cells were incubated with STS alone or with STS+1 μM peptide (in OPTI-MEM) (OPTI-MEM® is a modification of Eagle's Minimum Essential Media, buffered with HEPES and sodium bicarbonate, and supplemented with hypoxanthine, thymidine, sodium pyruvate, L-glutamine, trace elements, and growth factors) (STS concentration and incubation time for each cells are given in the figure). Thereafter, solutions were removed, replaced by complete medium and further incubated for 40 h. Following the regeneration phase, the cells were lyzed and DNA fragmentation was detected according to manufacturer's instructions (Cell Death detection ELISA^PLUS kit—Roche Diagnostics). […]
as §1
The anti-apoptotic effects of the peptides were also analyzed in murine NG118-15 (model for neuronal cells) (FIG. 5D), in murine C2C12 (model for muscle cells) (FIG. 5A) and in rat H9c2 (model for cardiac cells) (FIG. 5C). The highest reduction in DNA fragmentation were observed using Bpep-DAXXp in NG118-15 (66% reduction) using Tat-DAXXp in C2C12 (24% reduction) and Pip2b-DAXXp in H9c2 (31% reduction).

primary cardiomyocytes = assay: STS-induced DNA fragmentation (Cell Death detection ELISA PLUS) in primary cardiomyocytes; format: cell-based, mouse; settings: for anti-apoptotic effect compared with Tat-DAXXp: primary cardiomyocytes, against STS; for decrease in apoptosis: cardiomyocytes, STS + 1 μM peptide, FIG. 9
Method: FIG. 5: In vitro evaluation of the anti-apoptotic activity of CPPs and CPP-conjugates. Workflow and quantitation of DNA fragmentation in (A) C2C12 cells, (B) primary cardiomyocytes, (C) H9c2 cells and (D) NG108-15 cells. Data were normalized to 100% STS. Data shown are the means±SEM, with n≧5. Cells were seeded in 24-well plates and grown overnight. The next day, the cells were incubated with STS alone or with STS+1 μM peptide (in OPTI-MEM) (OPTI-MEM® is a modification of Eagle's Minimum Essential Media, buffered with HEPES and sodium bicarbonate, and supplemented with hypoxanthine, thymidine, sodium pyruvate, L-glutamine, trace elements, and growth factors) (STS concentration and incubation time for each cells are given in the figure). Thereafter, solutions were removed, replaced by complete medium and further incubated for 40 h. Following the regeneration phase, the cells were lyzed and DNA fragmentation was detected according to manufacturer's instructions (Cell Death detection ELISA^PLUS kit—Roche Diagnostics).
FIG. 6: Anti-apoptotic activity of variants of the Tat-DAXXp sequence on primary cardiomyocytes. As described in the caption of FIG. 5, the different analogues of the DAXXp sequence (see Table 2) were assessed for anti-apoptotic properties against STS (Cell Death detection ELISA^PLUS kit—Roche Diagnostics) (A-B). None of the analogues were able to protect the primary cardiomyocytes—a fact which confirms that the 16mer DAXXp has the optimal length and sequence for highest cardioprotective effect.
FIG. 7: Comparison of the murine/rat DAXXp with the human DAXXp sequence in terms of anti-apoptotic activity on C2C12 cells, primary cardiomyocytes, and H9c2. The murine DAXXp sequence conjugated to Tat (Tat-mDAXXp—SEQ ID NO: 61) which is identical to the rat DAXXp sequence (see FIG. 1B), was compared to the human construct (Tat-DAXXp) in terms of anti-apoptotic properties against STS (Cell Death detection ELISA^PLUS kit—Roche Diagnostics). The C2C12 cells and the primary cardiomyocytes used were from mice and the H9c2 cells from rat.
FIG. 9: Comparison of FADDp constructs with Tat-DAXXp in terms of anti-apoptotic activity in primary cardiomyocytes and in H9c2 cells. Quantification of DNA normalized to 100% STS. Data shown are the means±SEM, with n≧5. Cells were seeded in 24-well plates and grown overnight. The next day, the cells were incubated with STS alone or with STS+1 μM peptide (in OPTI-MEM®) (OPTI-MEM® is a modification of Eagle's Minimum Essential Media, buffered with HEPES and sodium bicarbonate, and supplemented with hypoxanthine, thymidine, sodium pyruvate, L-glutamine, trace elements, and growth factors) (STS concentration is given in the figure and incubation time is given in FIG. 5). Thereafter, solutions were removed, replaced by complete medium and further incubated for 40 hours. Following the regeneration phase, the cells were lyzed and DNA fragmentation was detected according to manufacturer's instructions (Cell Death detection ELISA^PLUS kit—Roche Diagnostics).
FIG. 10: Comparison of Tat-DAXXp and Tat-FADDp15 alone and in combination in primary cardiomyocytes (A) and in H9c2 cells (B).
as §1
In most publications, anti-apoptotic peptides currently available in the art are administrated 3-4 hours prior to apoptosis induction, which is poorly relevant to a clinical application. For that reason, the protocol used in the present study included administration of the peptides together with the staurosporine. […] This was not observed with CPP alone or with the Tat-scrDAXXp or Tat-ncDAXXp negative controls. […] To better compare the results, the DNA fragmentation (described by the enrichment factor) is related to the staurosporine-treated cells (=100%).

[1] = molecular target: T1, intracellular region of the Fas receptor (Homo sapiens, UniProt P25445); assay: Binding affinities (Kd) by surface plasmon resonance (Biacore); settings: mean of three independent experiments, read-out: Kd ± SD
T1 sequence (P25445 191-335 limits assumed): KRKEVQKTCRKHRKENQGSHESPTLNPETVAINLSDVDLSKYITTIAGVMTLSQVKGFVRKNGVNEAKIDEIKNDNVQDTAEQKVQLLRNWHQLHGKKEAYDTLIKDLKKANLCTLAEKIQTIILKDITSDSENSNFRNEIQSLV
From the text: Additionally, the potential interaction of the fragments with the intracellular region of the Fas receptor was cross-validated by measuring the binding affinities (Kd) using the surface plasmon resonance (SPR) technique (Biacore Life Science, Sweden).

NG108-15 cells = assay: STS-induced DNA fragmentation (Cell Death detection ELISA PLUS) in NG108-15 cells; format: cell-based; settings: murine NG118-15 (model for neuronal cells); FIG. 5D
Method: FIG. 5: In vitro evaluation of the anti-apoptotic activity of CPPs and CPP-conjugates. Workflow and quantitation of DNA fragmentation in (A) C2C12 cells, (B) primary cardiomyocytes, (C) H9c2 cells and (D) NG108-15 cells. Data were normalized to 100% STS. Data shown are the means±SEM, with n≧5. Cells were seeded in 24-well plates and grown overnight. The next day, the cells were incubated with STS alone or with STS+1 μM peptide (in OPTI-MEM) (OPTI-MEM® is a modification of Eagle's Minimum Essential Media, buffered with HEPES and sodium bicarbonate, and supplemented with hypoxanthine, thymidine, sodium pyruvate, L-glutamine, trace elements, and growth factors) (STS concentration and incubation time for each cells are given in the figure). […] Following the regeneration phase, the cells were lyzed and DNA fragmentation was detected according to manufacturer's instructions (Cell Death detection ELISA^PLUS kit—Roche Diagnostics).
as §1, §2

| Substance | anti-apoptotic effect compared with Tat-DAXXp (C2C12 cells) | anti-apoptotic effect compared with Tat-DAXXp (H9c2 cells) | anti-apoptotic effect compared with Tat-DAXXp (primary cardiomyocytes) | decrease in apoptosis (primary cardiomyocytes) | Kd [1] | reduction in DNA fragmentation (NG108-15 cells) |
| --- | --- | --- | --- | --- | --- | --- |
| GRKKRRQRRRPPQ-KRFRKEKKQLGSGLLG-NH2 (GRKKRRQRRRPPQKRFRKEKKQLGSGLLG-NH2) [Tat-mDAXXp] | increase in anti-apoptotic effect | increase in anti-apoptotic effect | increase in anti-apoptotic effect | – | – | – |
| GRKKRRQRRRPPQ-KRKLERVQS-NH2 (GRKKRRQRRRPPQKRKLERVQS-NH2) [Tat-FADDp] | – | less effective than Tat-DAXXp | less effective than Tat-DAXXp | 35% | – | – |
| GRKKRRQRRRPPQ-VGKRKLERVQSGLDL-NH2 (GRKKRRQRRRPPQVGKRKLERVQSGLDL-NH2) [Tat-FADDp15] | – | equal | increased anti-apoptotic effect | 57% | – | – |
| KKGRKQSGESLGTPKK-NH2 [scrDAXXp, KKGRKQSGESLGTPKK -NH2] | – | – | – | – | ≥ 6 mM | – |
| RXRRBRRXRRBRXB-KKSRKEKKQTGSGPLG-NH2 (R[Ahx]RR[βAla]RR[Ahx]RR[βAla]R[Ahx][βAla]KKSRKEKKQTGSGPLG-NH2; N-terminus assumed; SMILES CC(C)C[C@H](NC(=O)[C@@H]1CCCN1C(=O)CNC(=O)[C@H](CO)NC(=O)CNC(=O)[C@@H](NC(=O)[C@H](CCC(N)=O)NC(=O)[C@H](CCCCN)NC(=O)[C@H](CCCCN)NC(=O)[C@H](CCC(=O)O)NC(=O)[C@H](CCCCN)NC(=O)[C@H](CCCNC(=N)N)NC(=O)[C@H](CO)NC(=O)[C@H](CCCCN)NC(=O)[C@H](CCCCN)NC(=O)CCNC(=O)CCCCCNC(=O)[C@H](CCCNC(=N)N)NC(=O)CCNC(=O)[C@H](CCCNC(=N)N)NC(=O)[C@H](CCCNC(=N)N)NC(=O)CCCCCNC(=O)[C@H](CCCNC(=N)N)NC(=O)[C@H](CCCNC(=N)N)NC(=O)CCNC(=O)[C@H](CCCNC(=N)N)NC(=O)[C@H](CCCNC(=N)N)NC(=O)CCCCCNC(=O)[C@@H](N)CCCNC(=N)N)[C@@H](C)O)C(=O)NCC(N)=O) [Bpep-DAXXp] | – | – | – | – | – | 66% |

Source: US9814758B2, “Inhibitors of apoptosis and uses thereof” (CENTRE NATIONAL DE LA RECHERCHE SCIENTIFIQUE-CNRS, priority 2010, dated 2017)
